Legend:
Format in all cases: cell-based
Settings in all cases: fluorescent calcium assay
TRPML1 = TRPML1 (Homo sapiens, UniProt Q9GZU1); assay: Fluorescent TRPML1 assay (Fluo4-AM calcium fluorescence in doxycycline-induced HEK-293 Trex cells)
Procedure, shortened: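 EC50 values come from non-linear regression of percent activity, normalized to on-plate positive and negative controls, with fluorescence read at 480 nm excitation and 540 nm emission. Fluo4-AM-loaded (1 µM) doxycycline-induced HEK-293 Trex cells expressing mutated human TRPML1 were exposed in 10 mM calcium Ringer's to 6 nM–20 µM compound, in triplicate.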

TRPML3 = biological target: T1, TRPML3 (Homo sapiens, UniProt Q8TDD5); assay: Fluorescent TRPML3 assay (performed as for TRPML1, substituting the TRPML3 subtype)
T1 construct: expressed in transfected cells
T1 sequence (Q8TDD5 1-553): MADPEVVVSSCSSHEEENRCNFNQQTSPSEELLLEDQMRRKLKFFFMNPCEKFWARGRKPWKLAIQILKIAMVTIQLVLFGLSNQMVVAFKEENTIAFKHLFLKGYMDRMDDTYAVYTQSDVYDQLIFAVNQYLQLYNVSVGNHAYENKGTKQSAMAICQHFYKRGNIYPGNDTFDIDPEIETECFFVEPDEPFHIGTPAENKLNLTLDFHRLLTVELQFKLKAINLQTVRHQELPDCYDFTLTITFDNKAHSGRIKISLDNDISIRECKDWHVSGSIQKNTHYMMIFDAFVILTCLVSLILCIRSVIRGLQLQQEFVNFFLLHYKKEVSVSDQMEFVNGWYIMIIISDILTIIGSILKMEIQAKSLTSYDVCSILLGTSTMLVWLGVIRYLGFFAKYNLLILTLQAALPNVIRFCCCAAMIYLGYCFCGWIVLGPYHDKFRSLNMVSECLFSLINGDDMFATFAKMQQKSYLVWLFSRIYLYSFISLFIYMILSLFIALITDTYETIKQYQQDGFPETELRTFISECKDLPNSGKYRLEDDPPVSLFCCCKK
Procedure, shortened: (§1)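 HEK-293 Trex, dox-induced (0.5 ug/mL), mutated for surface expression. Fluo4-AM 1 micromolar load ~60 min, dark; buffer modified Ringer's, 10 mM Ca. Cpds 20 micromolar–6 nanomolar final, half-log, n=3. Read ex 480/em 540; % activity vs controls; EC50 nonlinear fit.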

TRPML2 = biological target: T2, TRPML2 (Homo sapiens, UniProt Q8IZK6); assay: Fluorescent TRPML2 assay (performed as for TRPML1, substituting the TRPML2 subtype)
T2 construct: expressed in transfected cells
T2 sequence (Q8IZK6 1-566): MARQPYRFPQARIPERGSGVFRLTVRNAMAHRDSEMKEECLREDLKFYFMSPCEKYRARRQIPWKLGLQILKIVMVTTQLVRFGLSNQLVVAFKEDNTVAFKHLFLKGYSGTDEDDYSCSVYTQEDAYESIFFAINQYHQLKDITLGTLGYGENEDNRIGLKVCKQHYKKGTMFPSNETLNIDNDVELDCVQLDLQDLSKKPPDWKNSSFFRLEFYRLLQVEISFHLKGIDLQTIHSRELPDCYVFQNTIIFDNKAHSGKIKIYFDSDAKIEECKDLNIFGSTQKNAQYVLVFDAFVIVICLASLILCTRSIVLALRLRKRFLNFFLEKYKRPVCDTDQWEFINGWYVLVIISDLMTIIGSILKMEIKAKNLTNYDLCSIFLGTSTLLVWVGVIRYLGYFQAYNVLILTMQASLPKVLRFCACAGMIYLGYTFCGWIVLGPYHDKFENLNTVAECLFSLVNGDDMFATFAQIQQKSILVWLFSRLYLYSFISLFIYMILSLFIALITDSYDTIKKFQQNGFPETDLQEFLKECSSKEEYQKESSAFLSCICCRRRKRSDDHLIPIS
Procedure, shortened: as §1

Sequence of TRPML1 (Q9GZU1 whole entry L15A/L16A/L577A/L578A, form open): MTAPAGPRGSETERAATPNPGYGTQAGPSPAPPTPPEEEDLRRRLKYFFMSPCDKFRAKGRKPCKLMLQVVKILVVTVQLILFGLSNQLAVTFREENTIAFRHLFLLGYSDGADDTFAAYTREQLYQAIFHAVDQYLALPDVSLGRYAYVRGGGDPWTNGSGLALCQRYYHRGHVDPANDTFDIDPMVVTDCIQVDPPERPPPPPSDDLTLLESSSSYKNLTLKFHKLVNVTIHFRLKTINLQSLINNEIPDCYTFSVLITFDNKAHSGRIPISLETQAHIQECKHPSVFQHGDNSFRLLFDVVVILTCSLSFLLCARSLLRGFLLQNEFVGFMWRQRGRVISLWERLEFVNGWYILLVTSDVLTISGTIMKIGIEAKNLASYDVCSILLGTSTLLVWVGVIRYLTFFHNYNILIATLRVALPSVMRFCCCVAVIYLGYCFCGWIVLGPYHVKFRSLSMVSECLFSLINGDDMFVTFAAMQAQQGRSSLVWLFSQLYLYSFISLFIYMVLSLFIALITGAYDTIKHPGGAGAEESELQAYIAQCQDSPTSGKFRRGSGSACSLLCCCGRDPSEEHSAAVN

SMILES	EC50 (TRPML1)	EC50 (TRPML3)	EC50 (TRPML2)
Cc1nc(-n2cc(-c3ccccc3F)c3c(N4CCN(C(=O)OC(C)(C)C)C[C@@H]4C)ncnc32)sc1C#N [Compound 463, tert-butyl (S)-4-(7-(5-cyano-4-methylthiazol-2-yl)-5-(2-fluorophenyl)-7H-pyrrolo[2,3-d]pyrimidin-4-yl)-3-methylpiperazine-1-carboxylate]	< 0.1 µM	< 0.1 µM	< 0.1 µM
CC(C)(C)OC(=O)N1CCN(c2ncnc3c2c(C2CCOCC2)cn3-c2cccc(Cl)c2)CC1 [Compound 465, tert-butyl 4-(7-(3-chlorophenyl)-5-(tetrahydro-2H-pyran-4-yl)-7H-pyrrolo[2,3-d]pyrimidin-4-yl)piperazine-1-carboxylate]	0.1 to 0.5 µM	< 0.1 µM	0.5 to 2 µM
C[C@H]1CN(C(=O)OC(C)(C)C)CCN1c1ncnc2c1c(C1CCOCC1)cn2-c1cc(F)cc(F)c1 [Compound 468, tert-butyl (S)-4-(7-(3,5-difluorophenyl)-5-(tetrahydro-2H-pyran-4-yl)-7H-pyrrolo[2,3-d]pyrimidin-4-yl)-3-methylpiperazine-1-carboxylate]	0.1 to 0.5 µM	0.1 to 0.5 µM	> 2 µM
C[C@@H]1CN(C(=O)OC(C)(C)C)CCN1c1ncnc2c1c(C1=CCOCC1)cn2-c1cccc(F)c1 [Compound 471, tert-butyl (R)-4-(5-(3,6-dihydro-2H-pyran-4-yl)-7-(3-fluorophenyl)-7H-pyrrolo[2,3-d]pyrimidin-4-yl)-3-methylpiperazine-1-carboxylate]	0.5 to 2 µM	0.1 to 0.5 µM	0.5 to 2 µM
C[C@H]1CN(C(=O)OC(C)(C)C)CCN1c1ncnc2c1c(C1=CCOCC1)cn2-c1cccc(F)c1 [Compound 472, tert-butyl (S)-4-(5-(3,6-dihydro-2H-pyran-4-yl)-7-(3-fluorophenyl)-7H-pyrrolo[2,3-d]pyrimidin-4-yl)-3-methylpiperazine-1-carboxylate]	0.1 to 0.5 µM	0.1 to 0.5 µM	0.5 to 2 µM
C[C@H]1CN(C(=O)OC(C)(C)C)CCN1c1ncnc2c1c(C1=CCOCC1)cn2-c1cc(F)cc(F)c1 [Compound 473, tert-butyl (S)-4-(7-(3,5-difluorophenyl)-5-(3,6-dihydro-2H-pyran-4-yl)-7H-pyrrolo[2,3-d]pyrimidin-4-yl)-3-methylpiperazine-1-carboxylate]	0.1 to 0.5 µM	0.1 to 0.5 µM	0.5 to 2 µM
Cc1cn(-c2cc(C#N)ccn2)c2ncnc(N3CCN(C(=O)OC(C)(C)C)C[C@@H]3C)c12 [Compound 476, tert-butyl (S)-4-(7-(4-cyanopyridin-2-yl)-5-methyl-7H-pyrrolo [2,3-d]pyrimidin-4-yl)-3-methylpiperazine-1-carboxylate]	< 0.1 µM	< 0.1 µM	< 0.1 µM
Cc1cn(-c2cc(C#N)ccn2)c2ncnc(N3C[C@@H](C)N(C(=O)OC(C)(C)C)C[C@@H]3C)c12 [Compound 477, tert-butyl (2R,5S)-4-(7-(4-cyanopyridin-2-yl)-5-methyl-7H-pyrrolo[2,3-d]pyrimidin-4-yl)-2,5-dimethylpiperazine-1-carboxylate]	< 0.1 µM	< 0.1 µM	< 0.1 µM
Cc1cn(-c2cc(F)ccn2)c2ncnc(N3C[C@@H](C)N(C(=O)OC(C)(C)C)C[C@@H]3C)c12 [Compound 480, tert-butyl (2R,5S)-4-(7-(4-fluoropyridin-2-yl)-5-methyl-7H-pyrrolo[2,3-d]pyrimidin-4-yl)-2,5-dimethylpiperazine-1-carboxylate]	< 0.1 µM	< 0.1 µM	0.5 to 2 µM
C[C@H]1CN(C(=O)OC(C)(C)C)CCN1c1ncnc2c1c(C(F)(F)F)cn2-c1cc(C#N)ccn1 [Compound 481, tert-butyl (S)-4-(7-(4-cyanopyridin-2-yl)-5-(trifluoromethyl)-7H-pyrrolo[2,3-d]pyrimidin-4-yl)-3-methylpiperazine-1-carboxylate]	< 0.1 µM	< 0.1 µM	< 0.1 µM
C[C@H]1CN(C(=O)OC(C)(C)C)CCN1c1ncnc2c1c(C(C)(C)O)cn2-c1cc(C#N)ccn1 [Compound 484, tert-butyl (S)-4-(7-(4-cyanopyridin-2-yl)-5-(2-hydroxypropan-2-yl)-7H-pyrrolo[2,3-d]pyrimidin-4-yl)-3-methylpiperazine-1-carboxylate]	< 0.1 µM	< 0.1 µM	0.1 to 0.5 µM

More lines, now with the values ahead:

EC50 (TRPML1)	EC50 (TRPML3)	EC50 (TRPML2)	SMILES
< 0.1 µM	< 0.1 µM	0.1 to 0.5 µM	Cc1nccnc1-c1cn(-c2cc(F)cc(F)c2)c2ncnc(N3C[C@@H](C)N(C(=O)OC(C)(C)C)C[C@@H]3C)c12 [Compound 462, tert-butyl (2R,5S)-4-(7-(3,5-difluorophenyl)-5-(3-methylpyrazin-2-yl)-7H-pyrrolo[2,3-d]pyrimidin-4-yl)-2,5-dimethylpiperazine-1-carboxylate]
< 0.1 µM	< 0.1 µM	0.5 to 2 µM	CC1CN(C(=O)OC(C)(C)C)CCN1c1ncnc2c1c(C1CCOCC1)cn2-c1cccc(Cl)c1 (stereo not drawn) [Compound 466, tert-butyl 4-(7-(3-chlorophenyl)-5-(tetrahydro-2H-pyran-4-yl)-7H-pyrrolo[2,3-d]pyrimidin-4-yl)-3-methylpiperazine-1-carboxylate]
0.1 to 0.5 µM	0.1 to 0.5 µM	0.5 to 2 µM	C[C@@H]1CN(C(=O)OC(C)(C)C)CCN1c1ncnc2c1c(C1CCOCC1)cn2-c1cccc(F)c1 [Compound 469, tert-butyl (R)-4-(7-(3-fluorophenyl)-5-(tetrahydro-2H-pyran-4-yl)-7H-pyrrolo[2,3-d]pyrimidin-4-yl)-3-methylpiperazine-1-carboxylate]
> 2 µM	> 2 µM	> 2 µM	C[C@H]1CN(C(=O)OC(C)(C)C)CCN1c1ncnc2c1c(C1COC1)cn2-c1cccc(F)c1 [Compound 474, tert-butyl (S)-4-(7-(3-fluorophenyl)-5-(oxetan-3-yl)-7H-pyrrolo[2,3-d]pyrimidin-4-yl)-3-methylpiperazine-1-carboxylate]
0.5 to 2 µM	0.1 to 0.5 µM	> 2 µM	C[C@H]1CN(C(=O)OC(C)(C)C)CCN1c1ncnc2c1c(C1COC1)cn2-c1cc(F)cc(F)c1 [Compound 475, tert-butyl (S)-4-(7-(3,5-difluorophenyl)-5-(oxetan-3-yl)-7H-pyrrolo[2,3-d]pyrimidin-4-yl)-3-methylpiperazine-1-carboxylate]
< 0.1 µM	< 0.1 µM	< 0.1 µM	CCc1cn(-c2cc(C#N)ccn2)c2ncnc(N3CCN(C(=O)OC(C)(C)C)C[C@@H]3C)c12 [Compound 478, tert-butyl (S)-4-(7-(4-cyanopyridin-2-yl)-5-ethyl-7H-pyrrolo[2,3-d]pyrimidin-4-yl)-3-methylpiperazine-1-carboxylate]
< 0.1 µM	< 0.1 µM	< 0.1 µM	CCc1cn(-c2cc(C#N)ccn2)c2ncnc(N3C[C@@H](C)N(C(=O)OC(C)(C)C)C[C@@H]3C)c12 [Compound 479, tert-butyl (2R,5S)-4-(7-(4-cyanopyridin-2-yl)-5-ethyl-7H-pyrrolo[2,3-d]pyrimidin-4-yl)-2,5-dimethylpiperazine-1-carboxylate]
< 0.1 µM	< 0.1 µM	0.1 to 0.5 µM	CC(C)(C)OC(=O)N1CCCN(c2ncnc3c2c(C2CC2)cn3-c2cc(C#N)ccn2)CCC1 [Compound 482, tert-butyl 5-(7-(4-cyanopyridin-2-yl)-5-cyclopropyl-7H-pyrrolo[2,3-d]pyrimidin-4-yl)-1,5-diazocane-1-carboxylate]
< 0.1 µM	< 0.1 µM	< 0.1 µM	C[C@@H]1CN(c2ncnc3c2c(C(F)(F)F)cn3-c2cc(C#N)ccn2)[C@@H](C)CN1C(=O)OC(C)(C)C [Compound 483, tert-butyl (2R,5S)-4-(7-(4-cyanopyridin-2-yl)-5-(trifluoromethyl)-7H-pyrrolo[2,3-d]pyrimidin-4-yl)-2,5-dimethylpiperazine-1-carboxylate]

Source: US20250136606A1, “MODULATORS OF TRPML, THEIR COMPOSITIONS AND METHODS OF USE” (Caraway Therapeutics, Inc., priority 2021, published 2025)
